Experiment in all cases: growth of human tumour cells (NCI), 48 h
The test system of assay [1] is UACC-62 melanoma.
Assay [2] has as its system A549 NSCLC.
For assay [3], the system named is BT-549 breast.
Assay [4] has as its system MDA-MB-435.
In assay [5] the test system is M14 melanoma.
For assay [6], the system named is MDA-MB-231 breast.
Assay [7] deals with U251 CNS.
Assay [8] relates to 786-0 renal.
The test system of assay [9] is A498 renal.
Assay [10] has as its system K-562 leukemia.

Our source for the GI50 and TGI values is PubChem BioAssay (NCI).

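These data come from cells grown in 96-well plates and exposed to compound for 48 hours at five concentrations. GI50 = concentration required for 50% inhibition of growth. At the TGI there is no net growth.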 Some results are limits rather than exact numbers.

As for `NC1CCC(Nc2nc(NCc3ccc(-c4ccccc4O)nc3)c3ncn(C4CCCC4)c3n2)CC1` (stereo not drawn), the GI50 in assay [1] was below 0.0174 µM; in assay [2], below 0.01 µM; in assay [3] it was 0.0998 µM; in [4], 0.0119 µM; in assay [5], 0.0112 µM; in assay [6] it was below 0.0105 µM. In addition, the GI50 is 0.0294 µM in assay [7], 0.0293 µM in assay [8] and 0.0233 µM in assay [9]. The TGI in assay [1] worked out at 0.0593 µM; in assay [2], 1.18 µM; in [3], 0.623 µM; in assay [4], 1.17 µM; in [5], 0.0552 µM; in assay [6], 0.895 µM. Moreover, the values for the TGI in [7], in [8] and in assay [9] were 0.321 µM, 1.06 µM and 0.0656 µM, respectively.

As for `COc1ccc(-c2cc(-c3cccn3C)c(C#N)c(=O)[nH]2)cc1OC`, the GI50 in [1] was 65.5 µM; in assay [2] it was above 100 µM; in assay [3], above 100 µM; in assay [4], above 100 µM; in [6], above 100 µM; in assay [7] it was above 100 µM. The GI50 in assay [8] is above 100 µM; in assay [9], 56.6 µM; in assay [10] it was above 100 µM. Also, the TGI in assay [1], in assay [2], in [3], in assay [4], in assay [6] and in [7] was above 100 µM each time. The TGI in assay [8], in [9] and in assay [10] was above 100 µM each time.

Regarding `COC(=O)CC[C@]1(C)O[C@H]2[C@H]([C@@H](C)CCCC(C)=O)OC(=O)[C@@H]2C[C@H]1O`, the GI50 in assay [1] was above 100 µM; in [2] it was above 100 µM; in assay [3], above 100 µM; in assay [4], 98.3 µM; in assay [6], above 100 µM; in assay [7], above 100 µM. In addition, the GI50 in assay [8] and in assay [10] was above 100 µM throughout. Moreover, the TGI in [1], in [2], in [3], in [4], in [6] and in [7] was above 100 µM each time. For the same compound, the TGI in [8] and in assay [10] was above 100 µM each time.

Consider `O=S(=O)(NCCCNc1nccc(-c2c(-c3ccc(F)c(O)c3)nc3sccn23)n1)c1ccc(F)cc1`, for which the GI50 in [2] is 3.02 µM; in [3] it was 1.84 µM; in assay [4], 0.636 µM; in [5], 0.0481 µM; in assay [7], 3.47 µM; in assay [8], 3.35 µM. The GI50 in assay [9] was 2.86 µM; in [10], 1.98 µM. Further, the TGI is 47.1 µM in assay [2]; 7.14 µM in assay [3]; 3.35 µM in assay [4]; 3.14 µM in [5]; above 100 µM in [7]; above 100 µM in assay [8]. Further, the TGI in [9] is 6.81 µM; in [10] it was above 100 µM.

As for `C=C(NC(=O)C(=C)NC(=O)c1csc(C2=NC3c4csc(n4)C4NC(=O)c5csc(n5)C(C(C)(O)C(C)O)NC(=O)C5CSC(=N5)C(=CC)NC(=O)C(C(C)O)NC(=O)c5csc(n5)C3(CC2)NC(=O)C(C)NC(=O)C(=C)NC(=O)C(C)NC(=O)C(C(C)CC)NC2C=Cc3c(C(C)O)cc(nc3C2O)C(=O)OC4C)n1)C(N)=O` (stereo not drawn), the GI50 in [1] was 4.34 µM; in assay [2] it was 57.3 µM; in [3], 2.1 µM; in assay [4], 3.96 µM; in assay [5], 3.49 µM; in assay [6], 6.46 µM. Further, the figures for the GI50 in [7] and in assay [8] were 9.37 µM and 5.49 µM, respectively. Further, the TGI in [1] was 32.6 µM; in assay [2], above 100 µM; in [3], 4.71 µM; in assay [4] it was above 100 µM; in [5], 12.7 µM; in assay [6] it was above 100 µM. Besides, the TGI in [7] stood at 31.8 µM; in [8], 19.7 µM.

`C[C@@H](O)[C@H](NC(=O)N[C@@H](CC(N)=O)c1nc([C@@H](N)CO)no1)C(=O)O`: the GI50 in assay [1], in assay [2], in assay [3], in [4], in assay [5] and in assay [6] was above 100 µM throughout. Besides, the GI50 in [7], in [8] and in assay [9] was above 100 µM each time. The TGI in [1], in assay [2], in [3], in assay [4], in assay [5] and in assay [6] was above 100 µM in each case. The TGI in assay [7], in assay [8] and in assay [9] was above 100 µM throughout.

For `c1cc(N2CCCN(c3ccc(C4=NCCCN4)cc3)CC2)ccc1C1=NCCCN1`, the GI50 in [1] was 68.1 µM; in assay [2] it was 59.6 µM; in assay [3] it was above 100 µM; in assay [4] it was above 100 µM; in assay [5] it was above 100 µM; in assay [7], 65.9 µM. For the same compound, the GI50 in assay [8] was above 100 µM; in assay [9], 2.72 µM; in assay [10] it was 88 µM. Moreover, the TGI in assay [1], in [2], in assay [3], in [4], in [5] and in assay [7] was above 100 µM in each case. Further, the TGI in assay [8], in [9] and in [10] was above 100 µM throughout.

With `CC1=C(C(=O)Nc2ccc(Cl)c(Cl)c2)C(c2cccc(Cl)c2)NC(=O)N1` (stereo not drawn), the GI50 in assay [1] is 5.9 µM; in assay [2], 17.3 µM; in assay [3], 6.42 µM; in assay [4], 0.464 µM; in assay [5] it was 7.79 µM; in [6], 4.44 µM. The GI50 in assay [7] is 8.32 µM; in assay [8] it was 10.2 µM; in assay [10], 13.6 µM. Besides, the TGI in [1] was 12.3 µM; in assay [2] it was above 50 µM; in [3] it was 13.4 µM; in [4], 1.92 µM; in assay [5], 16.1 µM; in assay [6] it was 11.7 µM. For the same compound, the results for the TGI in [7], in [8] and in assay [10] were 17 µM, 28.3 µM and 48.4 µM, respectively.
